Measurements as given in US5834487A, “Inhibition of 26S and 20S proteasome by indanones” (CV Therapeutics, priority 1996, dated 1998).

Target: T1, 20S catalytic subunit of the proteasome (multicatalytic proteinase complex) (Bos taurus, UniProt Q32KL2)
T1 construct: was purified to homogeneity from bovine brain according to published methods; from tissue; host or cells: bovine brain
Assay: 20S proteasome chymotryptic activity, fluorogenic peptide cleavage
Assay type: biochemical, bovine
Settings: 50 μM succinyl-leu-leu-val-tyr-7-amino-4-methyl coumarin, 15 minutes at 37° C, pH7.5
Procedure, shortened: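 Purified bovine-brain 20S proteasome (2 μg) with 0.1-100 μg/ml inhibitor in 50 mM HEPES, 0.1% SDS, pH 7.5. Reaction started with 50 μM Suc-LLVY-AMC, 15 min at 37° C, stopped with pH 4.0 acetate; liberated AMC read by fluorescence (ex 370, em 430 nm).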

IC50 [µg/mL] | Compound
> 10 | COc1ccc2c(c1)C(CC(=O)NC(CC(=O)O)C(=O)NC(CC(C)C)C(N)=O)CC2=O (mixture of isomers) [Compound 94]
> 10 | COc1ccc2c(c1)C(CC(=O)NC(CC(C)C)C(=O)NC(CC(=O)O)C(N)=O)CC2=O (mixture of isomers) [Compound 130]
> 10 | COc1ccc2c(c1)C(CC(=O)NC(CC(C)C)C(=O)NC(CC(C)C)C(=O)NC(C)(C)C(N)=O)CC2=O (mixture of isomers) [Compound 170]
> 10 | COc1ccc2c(c1)C(CC(=O)NC(CC(C)C)C(=O)NCCC(C)C)CC2=O (mixture of isomers) [Compound 200]
> 10 | COc1ccc2c(c1)C(CC(=O)NC(CC(C)C)C(=O)NC(CC(C)C)C(N)=O)CC2=O (mixture of isomers) [Compound 7]
> 10 | COc1ccc2c(c1)C(CC(=O)NC(CC(C)C)C(=O)NC(C)(C)C(N)=O)CC2=O (mixture of isomers) [Compound 28]
> 10 | COc1ccc2c(c1)C(CC(=O)NC(CC(C)C)C(=O)NC(CC(C)C)C(=O)NC(Cc1ccccc1)C(N)=O)CC2=O (mixture of isomers) [Compound 127]
> 10 | CCCC(NC(=O)CC1CC(=O)c2ccc(OC)cc21)C(=O)NC(CC(C)C)C(N)=O (mixture of isomers) [Compound 58]
> 10 | COc1ccc2c(c1)C(CC(=O)NC(CC(C)C)C(=O)NC(CC(N)=O)C(N)=O)CC2=O (mixture of isomers) [Compound 131]
> 10 | COc1ccc2c(c1)C(CC(=O)NC(CC(C)C)C(=O)NC(C)C(N)=O)CC2=O (mixture of isomers) [Compound 52]

More lines, now with the values behind:

Compound | IC50 [µg/mL]
COc1ccc2c(c1)C(CC(=O)NCCc1ccc(OC)c(OC)c1)CC2=O (centres unmarked) [Compound 72] | > 10
COc1ccc2c(c1)C(CC(=O)NC1CCN(Cc3ccccc3)CC1)CC2=O (centres unmarked) [Compound 110] | > 10
COc1ccc2c(c1)C(CC(=O)NC(CC(C)C)C(=O)NCC(=O)NCC(N)=O)CC2=O (mixture of isomers) [Compound 41] | > 10
COc1ccc2c(c1)C(CC(=O)NC(CC(C)C)C(=O)N1CCCC1C(N)=O)CC2=O (mixture of isomers) [Compound 54] | > 10
COc1ccc2c(c1)C(CC(=O)NC(CC(C)C)C(=O)NC(CC(C)C)C(=O)N(C)Cc1ccccc1)CC2=O (mixture of isomers) [Compound 180] | > 10
COc1ccc2c(c1)C(CC(=O)NC(CC(C)C)C(N)=O)CC2=O (mixture of isomers) [Compound 1] | 5
COc1ccc2c(c1)C(CC(=O)N(C)Cc1ccccc1)CC2=O (centres unmarked) [Compound 73] | > 10
COc1ccc2c(c1)C(CC(=O)N[C@@H](CC(C)C)C(=O)N[C@H](CC1CCCCC1)C(=O)NCC(N)=O)CC2=O (some centres unmarked) [Compound 89] | > 10
COc1ccc2c(c1)C(CC(=O)NC(CC1CCCCC1)C(N)=O)CC2=O (mixture of isomers) [Compound 29] | > 10
CC(C)CC(NC(=O)CC1CC(=O)c2ccccc21)C(=O)NC(CC(C)C)C(=O)NCC(N)=O (mixture of isomers) [Compound 159] | > 10
COc1ccc2c(c1)C(CC(=O)NC(Cc1ccccc1)C(=O)NC(CC(C)C)C(N)=O)CC2=O (mixture of isomers) [Compound 14] | > 10
CCCCCCCNC(=O)CC1CC(=O)c2ccc(OC)cc21 (centres unmarked) [Compound 70] | > 10
COc1ccc2c(c1)C(CC(=O)NCCN1CCCC1)CC2=O (centres unmarked) [Compound 112] | > 10
COc1ccc2c(c1)C(CC(=O)NCC(=O)NC(CC(C)C)C(=O)NCC(N)=O)CC2=O (mixture of isomers) [Compound 42] | > 10
COc1ccc2c(c1)C(CC(=O)NCCCc1ccccc1)CC2=O (racemic) [Compound 161] | > 50
COc1ccc2c(c1)C(CC(=O)NCCO)CC2=O (centres unmarked) [Compound 84] | > 10
